The values below come from PMC7906907, “Targeting STAT3 by a small molecule suppresses pancreatic cancer progression” (Oncogene, 2021).

One series deals with T1, STAT3 dimerization (Homo sapiens, UniProt P40763).
T1 construct: endogenous in cells; host or cells: PANC-1
The experiment in a line: STAT3 dimerization experiment (immunoprecipitation). Particulars: PANC-1 cells, 2 μM, with or without IL-6 stimulation. Type of series: cell-based. The text has this:
Fig. 3 N4 interacts with the STAT3-SH2 domain and interferes with the STAT3-EGFR and STAT3-NF-κB interactions. […] C–E The binding between N4 and STAT3 was examined in (C) SPR and (D) MST experiments. His-STAT3^127-722 protein was purified and used to examine the affinity between STAT3 and N4. (E) The binding between N4 and STAT3^SH2 was confirmed in MST assays. STAT3-SH2 protein was purified and labeled. N4 was serially diluted and mixed with equal volumes of labeled STAT3^SH2 protein. The MST signal was measured, and the data were analyzed by MO analysis software. F, G The FLAG-tag and HA-tag STAT3 expression plasmid was transfected into 293 T cells, followed by the addition of the indicated concentrations of N4. After 24 h, cells were lysed, and immunoprecipitation experiments were performed as described in Materials and Methods. H N4 represses STAT3 dimerization in pancreatic cancer cells. I After a 24 h treatment with 2 μM N4, pancreatic cancer cells were stimulated with IL-6 for 30 min. Cell lysates were immunoprecipitated with STAT3 overnight. The precipitates were washed, suspended in non-reducing sample buffer, and boiled for 10 min. The indicated antibodies were used for western blot assays. […]
Co-IP was performed as previously described. […] After overnight incubation, the precipitates were washed and analyzed using western blotting.

A further series has as its system PAN02-luc. The experiment in a line: Pancreatic cancer liver metastatic mouse model. Format: in vivo, C57BL/6 mice. Particulars: for mice alive: n = 5. Here is the method: C57BL/6 mice were intrasplenically injected with luciferase-expressing PAN02 cells (PAN02-luc) in matrigel and tumor growth was assessed (A) and quantified (B) by bioluminescent imaging weekly. […] C After 4 weeks, mice were sacrificed and livers were imaged. D The body weight of C57BL/6 tumor-bearing mice were measured weekly.
C57BL/6, male, 8-week-old mice were obtained from the Animal Center of East China Normal University. All animal experimental protocols were approved by the Animal Investigation Committee of the Institute of Biomedical Sciences, East China Normal University. PAN02 cells that stably expressed luciferase (PAN02-luc) were embedded in Matrigel (BD Biosciences) and intrasplenically injected into mice. Tumors were allowed to grow for 1 week and treatment of the mice with either compound or control was started after grouping of the mice according to average bioluminescence. The IVIS Imaging System (Xenogen Corporation) was used to monitor pancreatic tumor growth and metastasis. Images and measurements of bioluminescent signals were acquired and analyzed using Living Image and Xenogen software.

The subject of another series is Pan02 cells. The experiment in a line: EMT markers by immunofluorescence and western blot. Type of series: cell-based. Particulars: IF and WB, 24 h. On the procedure:
Fig. 8 N4 reverses EMT phenotype and shapes the microenvironment of PDAC. A IF staining was performed to detected the level of E-cadherin (red) and vimentin (green) after PAN02 treatment with the indicated concentrations of N4 for 24 h. DAPI (blue) was used to stain Nuclei. Scale bar, 20 μm. B Western blot assays were used to examine the expression of E-cadherin, N-cadherin and vimentin after PAN02 treatment with N4 for 24 h. C IHC of vimentin, F4/80 and α-SMA in tumor tissue from orthotopic models. Data represents the mean ± SD; *P < 0.05, **P < 0.01, ***P < 0.001, ****P < 0.0001, n.s. not significant by one-way ANOVA followed by multiple-comparison tests. D Quantification of vimentin, F4/80 and α-SMA in pancreatic tumors from PDAC. Scale bar, 50 μm.
Western blotting was performed as previously described. Briefly, cells were treated with indicated compounds and then lysed by boiling. […]
Immunofluorescence staining was performed as previously described. […] Images were recorded by confocal microscopy (Leica).

T1 sequence (P40763 2-770 limits assumed): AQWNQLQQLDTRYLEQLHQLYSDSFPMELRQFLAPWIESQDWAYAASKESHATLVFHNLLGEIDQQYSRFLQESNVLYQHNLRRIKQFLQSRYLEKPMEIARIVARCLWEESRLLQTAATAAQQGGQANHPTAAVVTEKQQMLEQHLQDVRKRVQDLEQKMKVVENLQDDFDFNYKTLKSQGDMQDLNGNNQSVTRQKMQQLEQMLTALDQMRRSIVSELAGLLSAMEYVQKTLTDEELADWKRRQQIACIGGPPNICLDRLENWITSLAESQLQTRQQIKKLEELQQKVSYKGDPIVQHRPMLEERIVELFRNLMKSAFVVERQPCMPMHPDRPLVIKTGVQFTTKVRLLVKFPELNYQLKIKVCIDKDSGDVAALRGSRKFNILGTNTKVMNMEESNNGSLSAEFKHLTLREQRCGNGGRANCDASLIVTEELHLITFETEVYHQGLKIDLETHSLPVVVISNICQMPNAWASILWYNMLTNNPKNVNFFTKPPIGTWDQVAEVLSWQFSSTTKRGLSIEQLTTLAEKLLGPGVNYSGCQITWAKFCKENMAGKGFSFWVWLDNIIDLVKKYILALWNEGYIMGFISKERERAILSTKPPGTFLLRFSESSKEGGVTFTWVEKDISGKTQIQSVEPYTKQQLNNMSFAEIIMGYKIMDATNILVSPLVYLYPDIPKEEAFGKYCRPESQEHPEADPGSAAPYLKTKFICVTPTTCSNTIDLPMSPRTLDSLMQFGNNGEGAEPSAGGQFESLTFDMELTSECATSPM

As to `COc1cc2c(cc1C(=O)Nc1cccc3cccnc13)CCC1C(C)(C)C(=O)C(C#N)=C[C@]21C` (stereo partly shown) [N4], at STAT3 dimerization, the STAT3 dimerization result was “efficiently decreased”. Also, the mice bodyweight result in the series with PAN02-luc (measured weekly) was “no obvious effect”. Further, the “tumor metastasis suppressed compared with the control group” value in the series on PAN02-luc (week 4, 10 mg/kg/d) is given as 63.25%; with PAN02-luc (week 4, 20 mg/kg/d) it was 81.16%. Besides, the mice alive was found to be 40% in the series with PAN02-luc (week 10, 10 mg/kg/d) and 80% in the series with PAN02-luc (week 10, 20 mg/kg/d). In the series on Pan02 cells, the “epithelial and mesenchymal markers” value is “upregulation of E-cadherin, and downregulation of N-cadherin and vimentin”.
